Key:
[1] = tested on: Escherichia coli K-12 MG1655 knockout mutants; test: Growth Profiler growth screening of K-12 MG1655 single, double and triple knockout mutants in glutaric or adipic acid; type: cell-based
Method: Five colonies from wild-type K-12 MG1655 and 10 individual colonies deriving from each population were inoculated into 300 μL M9+1% glucose in 96 well deepwell plates and incubated in a 300 rpm plate shaker at 37° C. The next day, cells were diluted 10× in M9+1% glucose and 30 μL was transferred into clear-bottomed 96 well half-deepwell plates (with rectangular wells) containing M9+1% glucose and M9+1% glucose+52.78 g/L glutaric acid or 55.56 g/L adipic acid, such that the final concentration of glutaric acid or adipic acid was 47.5 g/L or 50 g/L, respectively. In addition, cryogenic glycerol stocks of the overnight culture were saved in a 96 well plate format. Half deepwell plates were incubated at 37° C. with 225 rpm shaking in a Growth Profiler (Enzyscreen), with optical scans of the plates taken at 15 minute intervals. Green pixel values integrated over a 1 mm diameter circular area in each well were converted to OD600 values using a previously determined calibration between OD600 and green pixel values. […] In general, it was attempted to select three isolates per population for further analysis, and all populations were represented in the resequenced isolates.
Selected isolates from the primary screen were restruck onto LB agar from the cryogenic stock made from the overnight culture plate for the primary screen. Five K-12 MG1655 colonies and three individual colonies from each isolate were inoculated as biological replicates into a new 96 well deepwell plate containing 300 μL of M9+1% glucose, and grown overnight as for the primary screen. The next day, a cryogenic stock and half deepwell plates containing M9+1% glucose with or without glutaric acid or adipic acid were inoculated using the plate of overnight cultures, and growth was measured as described for the primary screen.
Probable important losses-of-function were determined by identifying genes across all isolates that harboured mutations, especially those occurring in multiple populations, and by the presence of at least one mutation that either generated a premature stop codon, a frameshift mutation, or the presence of an insertion element sequence within the gene. For those genes, the corresponding knockout strain from the Keio collection of single knockout mutants (where each gene is replaced with a cassette consisting of a kanamycin resistance gene flanked by FRT sites) was used as a donor strain for P1vir phage transduction. Briefly, the Keio strain was grown to early exponential phase in LB+5 mM CaCl2 and 80 μL of a P1vir stock raised on K-12 MG1655 was added. After significant lysis was observed after 1.5 to 2 hours, the lysate was filter-sterilized to remove cells and stored at 4° C. Strain K-12 MG1655 was grown overnight in LB+5 mM CaCl2) and 100 μL of the overnight culture was mixed with 100 μL of the P1vir lysate of the Keio collection mutant, and the mixture was incubated at 37° C. without shaking for 20 minutes. The entire mixture was then plated on LB agar containing 1.25 mM sodium pyrophosphate as a chelating agent and 25 μg/mL kanamycin. One colony was then restruck on LB+1.25 mM […]+25 μg/mL kanamycin plate and analyzed for presence of the Keio cassette in place of the wild-type gene by colony PCR. When further knockouts were constructed in the same strain, the Keio cassette was flipped out to generate a scar sequence such that Kan^R marker could be recycled. […]

[2] = tested on: Escherichia coli K-12 MG1655 knockout mutants; test: as above; type: cell-based; remark: listed apart in the source
[3] = strain MG1655 ΔkgtP proV::kan, M9 + 50 g/L adipate (neutralized)
[4] = strain MG1655 ΔkgtP sspA::kan, M9 + 50 g/L adipate (neutralized)
[5] = strain MG1655, M9 + 25 g/L adipate (neutralized)
[6] = strain MG1655, M9 + 50 g/L adipate (neutralized)
[7] = strain MG1655 kgtP::kan, M9 + 25 g/L adipate (neutralized)
[8] = strain MG1655 kgtP::kan, M9 + 50 g/L adipate (neutralized)
[9] = strain MG1655 ΔkgtP proV::kan, M9 + 25 g/L adipate (neutralized)
[10] = strain MG1655 ΔkgtP pstS::kan, M9 + 25 g/L adipate (neutralized)
[11] = strain MG1655 ΔkgtP pstS::kan, M9 + 50 g/L adipate (neutralized)
[12] = strain MG1655 ΔkgtP sspA::kan, M9 + 25 g/L adipate (neutralized)
[13] = strain MG1655 ΔkgtP ΔproV nagC::kan, M9 + 25 g/L adipate (neutralized)
[14] = strain MG1655 ΔkgtP ΔproV nagC::kan, M9 + 50 g/L adipate (neutralized)
[15] = strain MG1655 ΔkgtP proV::kan, M9 + 47.5 g/L glutarate (neutralized)
[16] = strain MG1655 ΔkgtP sspA::kan, M9 + 47.5 g/L glutarate (neutralized)
[17] = strain MG1655, M9 + 23.8 g/L glutarate (neutralized)
[18] = strain MG1655, M9 + 47.5 g/L glutarate (neutralized)
[19] = strain MG1655 kgtP::kan, M9 + 23.8 g/L glutarate (neutralized)
[20] = strain MG1655 kgtP::kan, M9 + 47.5 g/L glutarate (neutralized)
[21] = strain MG1655 ΔkgtP nagC::kan, M9 + 23.8 g/L glutarate (neutralized)
[22] = strain MG1655 ΔkgtP nagC::kan, M9 + 47.5 g/L glutarate (neutralized)
[23] = strain MG1655 ΔkgtP proV::kan, M9 + 23.8 g/L glutarate (neutralized)
[24] = strain MG1655 ΔkgtP rnb::kan, M9 + 23.8 g/L glutarate (neutralized)
[25] = strain MG1655 ΔkgtP rnb::kan, M9 + 47.5 g/L glutarate (neutralized)
[26] = strain MG1655 ΔkgtP sspA::kan, M9 + 23.8 g/L glutarate (neutralized)
[27] = strain MG1655 ΔkgtP ΔproV nagC::kan, M9 + 23.8 g/L glutarate (neutralized)
[28] = strain MG1655 ΔkgtP ΔproV nagC::kan, M9 + 47.5 g/L glutarate (neutralized)

O=C(O)CCCCC(=O)O [adipic acid]
mean growth rate μ [1, 3]: 0.264 h⁻¹ | mean lag time tlag [1, 3]: 16.5 h | mean growth rate μ [1, 4]: 0.117 h⁻¹ | mean growth rate μ [2, 5]: 0.467 h⁻¹ | mean lag time tlag [2, 5]: 6.9 h | mean growth rate μ [2, 6]: 0.115 h⁻¹ | mean lag time tlag [2, 6]: 25.7 h | mean growth rate μ [2, 7]: 0.534 h⁻¹ | mean lag time tlag [2, 7]: 6.4 h | mean growth rate μ [2, 8]: 0.192 h⁻¹ | mean lag time tlag [2, 8]: 17.5 h | mean growth rate μ [2, 9]: 0.583 h⁻¹ | mean lag time tlag [2, 9]: 6.2 h | mean growth rate μ [2, 10]: 0.465 h⁻¹ | mean lag time tlag [2, 10]: 7.6 h | mean growth rate μ [2, 11]: 0.139 h⁻¹ | mean lag time tlag [2, 11]: 21.3 h | mean growth rate μ [2, 12]: 0.525 h⁻¹ | mean lag time tlag [2, 12]: 6.8 h | mean lag time tlag [2, 4]: 49.2 h | mean growth rate μ [2, 13]: 0.501 h⁻¹ | mean lag time tlag [2, 13]: 6.8 h | mean growth rate μ [2, 14]: 0.213 h⁻¹ | mean lag time tlag [2, 14]: 19.7 h

O=C(O)CCCC(=O)O [glutaric acid]
mean lag time tlag [1, 15]: 13.0 h | mean growth rate μ [1, 16]: 0.225 h⁻¹ | mean growth rate μ [2, 17]: 0.466 h⁻¹ | mean lag time tlag [2, 17]: 7.4 h | mean growth rate μ [2, 18]: 0.101 h⁻¹ | mean lag time tlag [2, 18]: 21.8 h | mean growth rate μ [2, 19]: 0.487 h⁻¹ | mean lag time tlag [2, 19]: 6.1 h | mean growth rate μ [2, 20]: 0.191 h⁻¹ | mean lag time tlag [2, 20]: 13.5 h | mean growth rate μ [2, 21]: 0.491 h⁻¹ | mean lag time tlag [2, 21]: 6.7 h | mean growth rate μ [2, 22]: 0.179 h⁻¹ | mean lag time tlag [2, 22]: 15.0 h | mean growth rate μ [2, 23]: 0.520 h⁻¹ | mean lag time tlag [2, 23]: 6.2 h | mean growth rate μ [2, 15]: 0.251 h⁻¹ | mean growth rate μ [2, 24]: 0.505 h⁻¹ | mean lag time tlag [2, 24]: 6.3 h | mean growth rate μ [2, 25]: 0.183 h⁻¹ | mean lag time tlag [2, 25]: 13.6 h | mean growth rate μ [2, 26]: 0.473 h⁻¹ | mean lag time tlag [2, 26]: 6.1 h | mean lag time tlag [2, 16]: 12.2 h | mean growth rate μ [2, 27]: 0.541 h⁻¹ | mean lag time tlag [2, 27]: 6.6 h | mean growth rate μ [2, 28]: 0.215 h⁻¹ | mean lag time tlag [2, 28]: 14.0 h

Source: patent US20230139445A1, “BACTERIAL CELLS WITH IMPROVED TOLERANCE TO DIACIDS” (priority 2016, published 2023)
